Results: PubChem BioAssay (NCI)
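The compound was tested at five concentrations on cells cultured in 96-well plates, with a 48-hour exposure period. TGI: total growth inhibition.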

Legend:
Assay in all cases: DTP human tumour cell line panel, 48 h
786-0 renal = tested on: 786-0 renal
A498 renal = tested on: A498 renal
A549 NSCLC = tested on: A549 NSCLC
ACHN renal = tested on: ACHN renal
BT-549 breast = tested on: BT-549 breast
CCRF-CEM leukemia = tested on: CCRF-CEM leukemia
DU-145 prostate = tested on: DU-145 prostate
EKVX NSCLC = tested on: EKVX NSCLC
HCC-2998 colon = tested on: HCC-2998 colon
HCT-116 colon = tested on: HCT-116 colon
HCT-15 colon = tested on: HCT-15 colon
HOP-62 NSCLC = tested on: HOP-62 NSCLC
HOP-92 NSCLC = tested on: HOP-92 NSCLC
HS 578T breast = tested on: HS 578T breast
IGROV1 ovarian = tested on: IGROV1 ovarian
K-562 leukemia = tested on: K-562 leukemia
KM12 colon = tested on: KM12 colon
LOX IMVI melanoma = tested on: LOX IMVI melanoma
M14 melanoma = tested on: M14 melanoma
MALME-3M melanoma = tested on: MALME-3M melanoma
MCF7 breast = tested on: MCF7 breast
MDA-MB-231 breast = tested on: MDA-MB-231 breast
MDA-MB-435 = tested on: MDA-MB-435
MDA-N = tested on: MDA-N
MOLT-4 leukemia = tested on: MOLT-4 leukemia
NCI-H226 lung = tested on: NCI-H226 lung
NCI-H23 lung = tested on: NCI-H23 lung
NCI-H460 lung = tested on: NCI-H460 lung
OVCAR-3 ovarian = tested on: OVCAR-3 ovarian
OVCAR-5 ovarian = tested on: OVCAR-5 ovarian
OVCAR-8 ovarian = tested on: OVCAR-8 ovarian
PC-3 prostate = tested on: PC-3 prostate
RXF 393 renal = tested on: RXF 393 renal
SF-268 CNS = tested on: SF-268 CNS
SF-295 CNS = tested on: SF-295 CNS
SF-539 CNS = tested on: SF-539 CNS
SK-MEL-2 melanoma = tested on: SK-MEL-2 melanoma
SK-MEL-28 melanoma = tested on: SK-MEL-28 melanoma
SK-MEL-5 melanoma = tested on: SK-MEL-5 melanoma
SK-OV-3 ovarian = tested on: SK-OV-3 ovarian
SN12C renal = tested on: SN12C renal
SNB-19 CNS = tested on: SNB-19 CNS
SNB-75 CNS = tested on: SNB-75 CNS
SW-620 colon = tested on: SW-620 colon
T-47D breast = tested on: T-47D breast
TK-10 renal = tested on: TK-10 renal
U251 CNS = tested on: U251 CNS
UACC-257 melanoma = tested on: UACC-257 melanoma
UACC-62 melanoma = tested on: UACC-62 melanoma
UO-31 renal = tested on: UO-31 renal
CAKI-1 renal = tested on: CAKI-1 renal
COLO 205 colon = tested on: COLO 205 colon
HL-60(TB) leukemia = tested on: HL-60(TB) leukemia
HT29 colon = tested on: HT29 colon
NCI-H522 lung = tested on: NCI-H522 lung
NCI/ADR-RES ovarian = tested on: NCI/ADR-RES ovarian
OVCAR-4 ovarian = tested on: OVCAR-4 ovarian
RPMI-8226 leukemia = tested on: RPMI-8226 leukemia
SR leukemia = tested on: SR leukemia

Measured: TGI

CC1(C)CNCC(C)(OCc2ccccc2)C(=O)NC(C)(C)CNCC(C)(OCc2ccccc2)C(=O)N1 (stereo unspecified)
4.8 µM: HOP-92 NSCLC
not listed: CAKI-1 renal | COLO 205 colon | HL-60(TB) leukemia | HT29 colon | NCI-H522 lung | NCI/ADR-RES ovarian | OVCAR-4 ovarian | RPMI-8226 leukemia | SR leukemia
> 10 µM: all other assays above

Cc1ccc(NC(=O)c2cc(S(=O)(=O)Nc3n[nH]c(=O)[nH]3)c(SSc3cc(Cl)c(C(=O)Nc4ccc(C)cc4)cc3S(=O)(=O)Nc3n[nH]c(=O)[nH]3)cc2Cl)cc1
not listed: DU-145 prostate | RXF 393 renal | SF-539 CNS | T-47D breast
> 100 µM: all other assays above

COc1ccc(N2C(=O)/C(=C\c3cc(OC)c(OC)c(OC)c3)SC2c2ccccc2)cc1 (stereo unspecified)
not listed: IGROV1 ovarian | PC-3 prostate | SNB-75 CNS
> 100 µM: all other assays above

CCOC(=O)C(C(=O)OCC)=C1NC2(c3ccccc3Nc3ccccc32)C(C#N)S1 (stereo unspecified)
36 µM: UACC-257 melanoma
7.07 µM: RPMI-8226 leukemia
22 µM: UACC-62 melanoma
19.6 µM: HCT-15 colon
29.2 µM: A498 renal | NCI-H522 lung
36.3 µM: MDA-N
25.5 µM: SK-MEL-2 melanoma | T-47D breast
29 µM: MALME-3M melanoma
36.1 µM: OVCAR-5 ovarian
51.6 µM: SW-620 colon
27.6 µM: HCT-116 colon
28.4 µM: DU-145 prostate | K-562 leukemia
26.5 µM: LOX IMVI melanoma
46.3 µM: HS 578T breast
15.2 µM: NCI-H460 lung
27 µM: HOP-62 NSCLC
33 µM: RXF 393 renal
55.5 µM: HL-60(TB) leukemia
52.8 µM: ACHN renal
23 µM: SF-539 CNS
47.2 µM: EKVX NSCLC
20.6 µM: MDA-MB-435
20.9 µM: A549 NSCLC
25.6 µM: IGROV1 ovarian
27.5 µM: BT-549 breast
40 µM: SF-295 CNS
16.8 µM: PC-3 prostate
53.8 µM: SK-OV-3 ovarian
35.1 µM: SNB-19 CNS
16 µM: NCI-H23 lung
25.3 µM: UO-31 renal
> 100 µM: CCRF-CEM leukemia
10.1 µM: MOLT-4 leukemia
28.8 µM: NCI/ADR-RES ovarian
19.2 µM: KM12 colon
39 µM: SF-268 CNS
30 µM: OVCAR-8 ovarian
53.2 µM: SNB-75 CNS
18.5 µM: OVCAR-4 ovarian
23.8 µM: 786-0 renal
17.1 µM: HCC-2998 colon
24.5 µM: U251 CNS
26.2 µM: NCI-H226 lung
19.8 µM: M14 melanoma
21.6 µM: SK-MEL-5 melanoma
19.4 µM: COLO 205 colon
17.8 µM: HT29 colon
4.78 µM: OVCAR-3 ovarian
53.7 µM: CAKI-1 renal
50.7 µM: SK-MEL-28 melanoma
15.6 µM: HOP-92 NSCLC
18.9 µM: SN12C renal
38.6 µM: TK-10 renal
6.81 µM: SR leukemia
13.3 µM: MCF7 breast

COc1cc(O)c2c(=O)c(O)c(-c3ccc(O)c(OC)c3)oc2c1
18.1 µM: U251 CNS
6.21 µM: NCI-H522 lung
> 20.5 µM: SNB-75 CNS
10.5 µM: K-562 leukemia
> 21.9 µM: CCRF-CEM leukemia
> 86 µM: COLO 205 colon
> 25 µM: MOLT-4 leukemia
> 23 µM: HL-60(TB) leukemia
> 34.9 µM: SK-MEL-5 melanoma
not listed: ACHN renal | HOP-62 NSCLC | HOP-92 NSCLC | HS 578T breast | MDA-MB-435 | RXF 393 renal | SK-MEL-28 melanoma | SK-OV-3 ovarian | UACC-62 melanoma | UO-31 renal | OVCAR-4 ovarian | SR leukemia
> 100 µM: all other assays above

O=C(/C=C/c1ccccc1)Oc1ccc(C(=O)/C=C/c2ccc(Cl)cc2)cc1
not listed: HCT-15 colon | HOP-92 NSCLC | HS 578T breast | LOX IMVI melanoma | NCI-H226 lung | NCI-H23 lung | NCI-H522 lung | OVCAR-4 ovarian
> 100 µM: all other assays above

Nc1nc(O)c2ncn([C@H]3CC[C@@H](CO)O3)c2n1
not listed: 786-0 renal | A549 NSCLC | ACHN renal | EKVX NSCLC | HCC-2998 colon | MDA-MB-231 breast | SF-268 CNS | SF-539 CNS | HL-60(TB) leukemia | NCI-H522 lung
> 100 µM: all other assays above
